Here are results for 9 compounds from patent publication US11059842B2, “Monosaccharide amine and 3-nitro-2-phenyl-2H-chromene based inhibitors of glucose kinases” (UNIVERSITY OF SOUTH CAROLINA, priority 2019, dated 2021).

Several values for one entry are separate records, joined by “and”; a condition that tells them apart may be missing. Equal entries are not always repeated. Where two headings read alike, the source gives them in different places.

Assay [1] addresses T1, HsHxKIV (Homo sapiens (Human), UniProt P35557). Kind of assay: HsHxKIV Michaelis-Menten kinetics. The format is biochemical. As to conditions: substrate; triplicate runs. The procedure: (§1) D-Glucose was also tested as a control with alternative substrates. The protein expression work for TcGlcK and HsHxKIV were each made possible through the E. coli strain BL21(DE3) system. Purification of each enzyme was performed through cobalt-NTA chromatography followed by size-exclusion chromatography; assessment of purity was performed by SDS-PAGE. In enzymatic assays, a time-optimum (TOPT) was determined to be 120 seconds for TcGlcK and 600 seconds for HsHxKIV; all assays were run at room temperature. A general reaction scheme included a first reaction in which the monosaccharide, ATP, and Mg^2+ react with the enzyme, e.g., TcGlcK, forming a hexose-phosphate and ADP. In a second reaction, hexose-phosphate with the assistance of glucose-6-phosphate dehydrogenase (G6PDH) and NADP^+ was converted to the lactone form of the hexose-phosphate and NADPH. Fluorescence of NADPH was monitored using a fluorescence microplate reader with […] wavelengths of 340 nm and 485 nm, respectively.
FIG. 4 and FIG. 5 present typical Michaelis-Menten enzyme kinetic plots for D-glucose. […] Michaelis-Menten constant (KM) values, which were used as the set final assay concentrations of substrates D-glucose and ATP for the primary screens, were determined for both TcGlcK and HsHxKIV in triplicate runs. […]

Assay [2] deals with T2, TcGlcK (Trypanosoma cruzi (strain CL Brener), UniProt Q4E4E1). Briefly: TcGlcK Michaelis-Menten kinetics and substrate range. The format is biochemical. The settings on record: substrate; triplicate runs. The procedure:
as §1
(§2) FIG. 4 and FIG. 5 present typical Michaelis-Menten enzyme kinetic plots for D-glucose. As shown, the NADP^+ to NADPH turnover rate is a function of [D-glucose] & [ATP] for TcGlcK (FIG. 4) and HsHxKIV (FIG. 5) absent inhibition. Michaelis-Menten constant (KM) values, which were used as the set final assay concentrations of substrates D-glucose and ATP for the primary screens, were determined for both TcGlcK and HsHxKIV in triplicate runs. The KM values for TcGlcK with respect to D-glucose and ATP were 0.40 mM and 0.34 mM, respectively. The KM values for HsHxKIV with respect to D-glucose and ATP were 43 mM and 0.20 mM, respectively.
All phosphorylated hexoses were shown getting converted into their corresponding products by G6PDH, in abundant quantities through a 30-second time frame. This permitted the standard TcGlcK […] assay, which was timed for […], to be used as an assay to analyze alternative substrates.

Assay [3] deals with Trypanosoma cruzi glucokinase (TcGlcK) (Trypanosoma cruzi (strain CL Brener), UniProt Q4E4E1). The format is biochemical. The settings on record: for TcGlcK Inh20 (%): percentage of inhibition at 20 μM of the compound, N = 1. The procedure:
as §1, with “In enzymatic assays, a time-optimum (TOPT) was determined to be 120 seconds for TcGlcK and 600 seconds for HsHxKIV; all assays were run at room temperature.” left out
Michaelis-Menten constant (KM) values, which were used as the set final assay concentrations of substrates D-glucose and ATP for the primary screens, were determined for both TcGlcK and HsHxKIV in triplicate runs. […]
The cutoff percentage was calculated by using normalized percent inhibition that took into consideration the positive and negative controls of the fluorescence readout from a fluorescence microplate reader. In addition, an unconfirmed hit was selected if the activity measurement was three standard deviations away from the mean of the positive controls.

Assay [4] concerns the target T1, HsHxKIV. Kind of assay: Primary assay screen of HsHxKIV, normalized percent inhibition (Example 2). The format is biochemical. As to conditions: triplicate. The procedure:
(§3) Primary assay screens of TcGlcK, LbGlcK, and HsHxKIV against the 3-nitro-2-phenyl-2H-chromene-based inhibitors compound nos. 19-22 were carried out. Compound 1, Benzoyl glucosamine (BENZ-GlcN or simply “BENZ”) and carboxybenzyl glucosamine (CBZ-GlcN or simply “CBZ”) were both used as controls due to their known inhibition against TcGlcK. LbGlcK was chosen to be tested against these compounds due to its 44% protein sequence similarity to TcGlcK.
(§4) All screens were done in triplicate and were analyzed using normalized percent inhibition (NPI) calculations. NPI calculations rely on positive and negative assay controls within the screen to account for any fluctuations in the fluorescence measurements.
(§5) The NPI for a compound to be considered a “hit” against TcGlcK required a value exceeding 60.5% inhibition in the primary screen. All four compounds ([…]) qualified as hits based off of this parameter. LbGlcK required compounds to be above 12.6% inhibition in its primary screen; all four compounds were also qualified as hits.

Assay [5] concerns the target T2, TcGlcK. Kind of assay: Primary assay screen of TcGlcK, normalized percent inhibition (Example 2). The class given is biochemical. The settings on record: triplicate. The procedure:
as §3, §4, §5

Assay [6] concerns the target Homo sapiens hexokinase IV (HsHxKIV) (Homo sapiens (Human), UniProt P35557). Briefly: HsHxKIV enzyme-inhibition screening assay (Example 1). The settings on record: 20 μM compound; N = 1. The format is biochemical. The procedure:
as §1, §2

Assay [7] has as its system Leishmania braziliensis glucokinase (LbGlcK). Kind of assay: Primary assay screen of LbGlcK, normalized percent inhibition (Example 2). The format is biochemical. The settings on record: triplicate. The procedure: as §3, §4, §5
Assay [8] concerns glucose-6-phosphate dehydrogenase (G6PDH). Kind of assay: G6PDH confirmatory assay (coupling enzyme counter-screen). The format is biochemical. As to conditions: 20 μM compound; quadruplicate. The procedure:
The 16 compounds showing substantial inhibition against TcGlcK at compound concentrations of 20 μM were then examined in a confirmatory assay in which the amino sugar analogues were at a concentration of 20 μM and were tested against the assay's only coupling enzyme, G6PDH, to verify enzyme activity; the assay was performed in quadruplicate. […] These confirmed hits included representatives from all three monosaccharide scaffolds tested (i.e., D-GlcN, D-ManN, and D-GalN).

The target of assay [9] is T2, TcGlcK. The format is biochemical. The procedure:
as §1, with “In enzymatic assays, a time-optimum (TOPT) was determined to be 120 seconds for TcGlcK and 600 seconds for HsHxKIV; all assays were run at room temperature.” left out

The target in assay [10] is T2, TcGlcK. As to conditions: from D'Antonio, et al (2015); cited from earlier work.
Assay [11] concerns T. cruzi (Tulahuen strain) infective form (trypomastigote and amastigote life stages) co-cultured in NIH-3T3 fibroblasts. Briefly: T. cruzi infective form growth inhibition in NIH-3T3 fibroblasts. The format is cell-based, Trypanosoma cruzi. As to conditions: Tulahuen strain infective form in NIH-3T3 fibroblasts; N = 3 (Amphotericin B control: 6 replicates). The procedure:
The curve and the IC50 were calculated from measurements determined in triplicate and expressed as percent growth inhibition of the T. cruzi parasite infection of mammalian cells.
Compounds were further screened against the T. cruzi (Tulahuen strain) infective form (trypomastigote and amastigote life stages) co-cultured in NIH-3T3 fibroblasts to establish IC50 values. Assays were performed in triplicate.
The single dose in vitro study included administration of the compounds in 80 μM inhibitor concentrations (N=3). Amphotericin B was used as a control.

The subject of the next assay is T. brucei. Kind of assay: T. brucei in vitro screen. The format is cell-based. The settings on record: Trypanosoma brucei; average; concentrations up to 10 μM, N=3. The procedure: Compounds 19-31 were screened against T. brucei. The single dose in vitro study included administration of the compounds in increasing concentrations up to 10 μM (N=3 for each compound concentration value). Media and T. bricei+0.5% SDS were used as control.

Assay [12] relates to T. cruzi (Tulahuen strain) infective form (trypomastigote and amastigote life stages) co-cultured in NIH-3T3 fibroblasts. As to conditions: literature / previously measured values; infective form in NIH-3T3 fibroblasts; cited from earlier work.

T1 sequence (P35557 whole entry): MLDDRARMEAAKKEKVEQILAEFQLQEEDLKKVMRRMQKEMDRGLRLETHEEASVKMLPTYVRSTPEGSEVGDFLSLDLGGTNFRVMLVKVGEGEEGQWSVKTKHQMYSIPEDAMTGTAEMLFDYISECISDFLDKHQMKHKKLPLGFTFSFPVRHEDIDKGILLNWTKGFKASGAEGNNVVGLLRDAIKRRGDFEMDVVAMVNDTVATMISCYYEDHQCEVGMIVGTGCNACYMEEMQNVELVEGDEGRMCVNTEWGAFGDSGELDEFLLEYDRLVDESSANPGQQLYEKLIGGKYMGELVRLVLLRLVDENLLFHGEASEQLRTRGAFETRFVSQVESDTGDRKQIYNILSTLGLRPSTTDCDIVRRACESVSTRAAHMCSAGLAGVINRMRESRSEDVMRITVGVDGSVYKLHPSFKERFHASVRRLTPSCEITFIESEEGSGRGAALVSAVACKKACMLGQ
T2 sequence (Q4E4E1 1-376): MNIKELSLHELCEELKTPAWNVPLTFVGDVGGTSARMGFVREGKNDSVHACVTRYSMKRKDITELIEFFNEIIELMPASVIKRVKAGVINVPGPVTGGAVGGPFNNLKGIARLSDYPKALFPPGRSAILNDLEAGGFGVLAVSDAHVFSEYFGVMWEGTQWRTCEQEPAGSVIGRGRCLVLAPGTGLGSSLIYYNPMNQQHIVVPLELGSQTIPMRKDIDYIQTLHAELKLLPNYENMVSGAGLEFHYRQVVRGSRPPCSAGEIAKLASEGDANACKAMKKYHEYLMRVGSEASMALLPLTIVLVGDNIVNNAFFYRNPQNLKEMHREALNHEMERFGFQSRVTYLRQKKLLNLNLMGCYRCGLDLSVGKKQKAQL
Trypanosoma cruzi glucokinase (TcGlcK), sequence (Q4E4E1 1-376): as above
Homo sapiens hexokinase IV (HsHxKIV), sequence (P35557 whole entry): as the sequence (P35557 whole entry) above

The Km is the concentration of substrate that gives half-maximal velocity. As to `Nc1ncnc2c1ncn2[C@@H]1O[C@H](COP(=O)(O)OP(=O)(O)OP(=O)(O)O)[C@@H](O)[C@H]1O` [ATP], the Michaelis constant (Km) at HsHxKIV [1] worked out at 200 µM; at TcGlcK [2], 340 µM.

Regarding `O=C(NC1C(O)OC(CO)C(O)C1O)OCc1ccccc1` (stereo not shown) [CBZ-GlcN, carboxybenzyl glucosamine, reference compound], in assay [3], the “TcGlcK Inh20 (%)” value is on record as 92%. For the same compound, the “NPI (%) HsHxKIV” value on HsHxKIV [4] is 15.0%. Besides, the “NPI (%) TcGlcK” value on TcGlcK [5] stood at 100%.

A word on the Ki: it is the equilibrium dissociation constant of an inhibitor or competing ligand from its target. As for `O=C(N[C@H]1C(O)O[C@H](CO)[C@@H](O)[C@@H]1O)c1ccccc1` (stereo partly shown) [Compound 1, Benzoyl glucosamine], the “TcGlcK Inh20:HsHxKIV Inh20 ratio” value in [3] (higher values indicate more selective towards TcGlcK) is 1.65. Besides, the “TcGlcK Inh20 (%)” value in [3] is 65% and 64.7%. In addition, the “HsHxKIV Inh20(%)” value in assay [6] came out at 39%. Moreover, the “NPI (%) HsHxKIV” value on HsHxKIV [4] was found to be 9.30%. In [7], the “NPI (%) LbGlcK” value stood at 27.2%. On TcGlcK [5], the “NPI (%) TcGlcK” value is on record as 100%. Besides, the “G6PDH Inh20 (%)” value in assay [8] was 0.5 ± 1.0%. Moreover, the “Ki stronger than compound 5 by magnitude” value at TcGlcK [9] (relative to compound 5) is 4.3 fold. For the same compound, on TcGlcK [10], the inhibition constant Ki was 32 µM.

What is called IC50 is the midpoint of a concentration-inhibition curve. For `O=C(N[C@H]1C(O)O[C@H](CO)[C@@H](O)[C@@H]1O)c1cc2ccccc2o1` (stereo partly shown) [Compound 5], the “TcGlcK Inh20 (%)” value in [3] is 31% and 31.2%. Besides, the “HsHxKIV Inh20(%)” value in assay [6] stood at 25%. Also, the “G6PDH Inh20 (%)” value in assay [8] is on record as 0.0 ± 0.0%. In assay [11], this compound registered an IC50 of 27.2 µM. The “mode of TcGlcK inhibition” value at TcGlcK [9] is “competitive inhibition”. The inhibition constant Ki at TcGlcK [9] (N = 3) was 139 ± 35 µM.

Compound `O=[N+]([O-])C1=Cc2cc(Br)cc(Br)c2O[C@H]1c1c(Cl)cccc1Cl` [Compound 19] returned an IC50 in the assay with T. brucei of 0.902 µM. The “NPI (%) HsHxKIV” value on HsHxKIV [4] is listed as 82.1%. Further, the “NPI (%) TcGlcK” value on TcGlcK [5] came out at 62.3%.

In turn, `O=[N+]([O-])C1=Cc2cc(Br)ccc2O[C@H]1c1ccccc1Cl` [Compound 20] returned an IC50 in the assay with T. brucei of 0.862 µM. In addition, the “NPI (%) HsHxKIV” value on HsHxKIV [4] was found to be 64.7%. Further, at TcGlcK [5], the “NPI (%) TcGlcK” value worked out at 89.5%.

Turning to `O=[N+]([O-])C1=Cc2ccccc2O[C@H]1c1ccccc1Cl` [Compound 21], the “NPI (%) HsHxKIV” value at HsHxKIV [4] was determined as 51.8%. The “NPI (%) TcGlcK” value on TcGlcK [5] came to 54.7%.

In the case of `O=[N+]([O-])C1=Cc2ccccc2O[C@H]1c1c(Cl)cccc1Cl` [Compound 22], the “NPI (%) HsHxKIV” value at HsHxKIV [4] is on record as 66.0%. The “NPI (%) TcGlcK” value at TcGlcK [5] was determined as 69.5%.

Take `O=C(Cn1ccnc1[N+](=O)[O-])NCc1ccccc1` [benznidazole]: in [12], the IC50 was 1.12 ± 0.01 µM.
